{"source": "patent US11098038B2", "about": "“Imidazole-based anticancer agents and derivatives thereof, and methods of making and using same” (The University of Toledo, priority 2017, dated 2021)", "format_in_all_cases": "cell-based", "key": {"OVCAR-3": {"tested_on": "OVCAR-3", "experiment": "NCI 60 screen, OVCAR-3", "conditions": "Homo sapiens, Ovarian", "protocol": "(§1) The compounds synthesized were tested at the National Cancer Institute (NCI) for anti-proliferative activity in the 60 human tumor cell line assay."}, "SNB-19": {"tested_on": "SNB-19", "experiment": "NCI 60 screen, SNB-19", "conditions": "Homo sapiens, CNS", "protocol": "as §1"}, "SF-539": {"tested_on": "SF-539", "experiment": "NCI 60 screen, SF-539", "conditions": "Homo sapiens, CNS", "protocol": "as §1"}, "NCI/ADR-RES": {"tested_on": "NCI/ADR-RES", "experiment": "NCI 60 screen, NCI/ADR-RES", "conditions": "Homo sapiens, Ovarian", "protocol": "as §1"}, "T-47D": {"tested_on": "T-47D", "experiment": "NCI 60 screen, T-47D", "conditions": "Homo sapiens, T47D, Breast", "protocol": "as §1"}, "SK-MEL-2": {"tested_on": "SK-MEL-2", "experiment": "NCI 60 screen, SK-MEL-2 (second line)", "conditions": "Homo sapiens; Melanoma, SK-MEL-2 (second of two lines so named, r38)", "protocol": "as §1"}, "A549/ATCC": {"tested_on": "A549/ATCC", "experiment": "NCI 60 screen, A549/ATCC", "conditions": "Homo sapiens, Non-Small Cell Lung", "protocol": "as §1"}, "HCT15": {"tested_on": "HCT15", "experiment": "NCI 60 screen, HCT15", "conditions": "Homo sapiens, HCT-15, Colon", "protocol": "as §1"}, "SN12C": {"tested_on": "SN12C", "experiment": "NCI 60 screen, SN12C", "conditions": "Homo sapiens, Renal", "protocol": "as §1"}, "CCRF-CEM": {"tested_on": "CCRF-CEM", "experiment": "NCI 60 screen, CCRF-CEM", "conditions": "Homo sapiens, Leukemia", "protocol": "as §1"}, "UACC-62": {"tested_on": "UACC-62", "experiment": "NCI 60 screen, UACC-62", "conditions": "Homo sapiens, Melanoma", "protocol": "as §1"}, "NCI-H226": {"tested_on": "NCI-H226", "experiment": "NCI 60 screen, NCI-H226", "conditions": "Homo sapiens, Non-Small Cell Lung", "protocol": "as §1"}, "OVCAR-5": {"tested_on": "OVCAR-5", "experiment": "NCI 60 screen, OVCAR-5", "conditions": "Homo sapiens, Ovarian", "protocol": "as §1"}, "HeLa cells": {"tested_on": "HeLa cells", "experiment": "Mitotic arrest of HeLa cells observed under the microscope", "conditions": "10 μM", "protocol": "FIG. 6: Color images showing untreated HeLa cells used as a control. Mitotic duration: 60 minutes. Each frame was taken after 12 minute intervals. Frame 5 to frame 9 show cells' progression through mitosis.\nFIG. 7: Color images showing HeLa cells treated with 10 μM of compound 25. Mitotic duration: 27.4 hr.\nAlthough developed as HDAC inhibitors, the compounds herein may actually act by multiple mechanisms. […] Snap shots were taken at a 12 minute interval.\nA cell that is rounded up in frame 2 enters mitosis (FIG. 7)."}, "RXF393": {"tested_on": "RXF393", "experiment": "NCI 60 screen, RXF393", "conditions": "Homo sapiens, RXF 393, Renal", "protocol": "as §1"}, "SK-OV-3": {"tested_on": "SK-OV-3", "experiment": "NCI 60 screen, SK-OV-3", "conditions": "Homo sapiens, Ovarian", "protocol": "as §1"}}}
{"smiles": "O=C(Cc1ccc(/C=C/C(=O)c2ncc[nH]2)cc1)Nc1ccc(Cl)cc1", "note": "[Compound 25, (E)-2-(-4 (3-(1H-imidazol-2-yl)-3-oxoprop-1-en-1-yl)phenyl)-N-(4-chlorophenyl)acetamide]", "values": [{"measurement": "GI50", "setting": "OVCAR-3", "value": 1.14, "unit": "µM"}, {"measurement": "GI50", "setting": "SNB-19", "value": 2.32, "unit": "µM"}, {"measurement": "GI50", "setting": "SF-539", "value": 3.33, "unit": "µM"}, {"measurement": "GI50", "setting": "NCI/ADR-RES", "value": 5.02, "unit": "µM"}, {"measurement": "GI50", "setting": "T-47D", "value": 3.24, "unit": "µM"}, {"measurement": "GI50", "setting": "SK-MEL-2", "value": 4.81, "unit": "µM"}, {"measurement": "GI50", "setting": "A549/ATCC", "value": 6.9, "unit": "µM"}, {"measurement": "GI50", "setting": "HCT15", "value": 0.879, "unit": "µM"}, {"measurement": "GI50", "setting": "SN12C", "value": 2.4, "unit": "µM"}, {"measurement": "GI50", "setting": "CCRF-CEM", "value": 1.08, "unit": "µM"}, {"measurement": "GI50", "setting": "UACC-62", "value": 3.94, "unit": "µM"}, {"measurement": "GI50", "setting": "NCI-H226", "value": 7.5, "unit": "µM"}, {"measurement": "GI50", "setting": "OVCAR-5", "value": 3.3, "unit": "µM"}, {"measurement": "Fate of arrested cells", "setting": "HeLa cells", "value": "eventually underwent apoptosis"}, {"measurement": "Mitotic arrest (progress through cell division)", "setting": "HeLa cells; monitored for over 27.4 hours", "value": "did not proceed with cell division"}, {"measurement": "Mitotic duration", "setting": "HeLa cells; untreated control 60 minutes", "value": 27.4, "unit": "h"}, {"measurement": "GI50", "setting": "RXF393", "value": 3.05, "unit": "µM"}, {"measurement": "GI50", "setting": "SK-OV-3", "value": 9.74, "unit": "µM"}]}
